Tests used:
[1] = system: human lung cancer and breast cancer; details: PNAS 2012 109 (24) 9623-9628; cited from earlier work
[2] = system: human embryonic kidney (HEK) toll-like receptor-3 (TLR3) cells; assay: Bioactivity of poly I:C released from CryogelMA on HEK TLR3 cells; type: cell-based; details: in vitro, supernatants over several days, absorbance
Source text: FIG. 8 is a line graph showing CryogelMA poly I:C release and bioactivity. […] Doing this in the tumor microenvironment stimulates maturation of recruited antigen-presenting cells (APCs) and results in antitumor immunity.

[3] = molecular target: CD137 (Homo sapiens, UniProt Q07011); details: several clinical trials, Ascierto et al., 2010; cited from earlier work
[4] = system: immune cells; assay: Click alginate cryogel with cytokines/chemokines placed under the skin, screened for immune cell accumulation; type: in vivo; details: Cryoclick gels
Source text: FIG. 12 is a series of photographs showing immune cell accumulation using GM-CSF—DC growth/differentiation factor in the device. FIGS. 12-15 show data using Cryoclick gels. Using a click alginate cryogel, a number of cytokines and chemokines were placed under the skin and screened for resulting activity in terms of immune cell accumulation.

[5] = system: tumor cells

CD137, sequence (Q07011 24-255): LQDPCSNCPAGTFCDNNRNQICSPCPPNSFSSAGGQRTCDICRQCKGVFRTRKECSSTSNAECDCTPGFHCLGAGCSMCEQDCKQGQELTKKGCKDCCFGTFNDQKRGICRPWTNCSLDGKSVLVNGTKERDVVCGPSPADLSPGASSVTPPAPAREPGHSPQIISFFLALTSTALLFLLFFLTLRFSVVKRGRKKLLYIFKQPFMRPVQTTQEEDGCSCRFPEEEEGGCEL

CN(CC(=O)N(Cc1ccc(C2CCCCC2)cc1)c1ccc(C(=O)O)c(O)c1)S(=O)(=O)c1c(F)c(F)c(F)c(F)c1F [BP-1-102]
activity against tumors in animals [1]: active

polyinosine-polycytidylic acid [poly I:C]
response of HEK TLR3 cells to supernatants [2]: produce a response measured by absorbance

BMS-66513: anti-CD137 antibody
clinical response [3]: partial remissions in disease | clinical toxicity [3]: liver toxicity

IL-15: interleukin-15, T cell/NK cell survival factor
immune cell accumulation at gel placed under the skin [4]: accumulation of CD4 and CD8 T cells in the skin

COc1cccc2c1C(=O)c1c(O)c3c(c(O)c1C2=O)C[C@@](O)(C(=O)CO)C[C@@H]3O[C@H]1C[C@H](N)[C@H](O)[C@H](C)O1 [doxorubicin]
cell death at the tumor close to the scaffold border ([5]; day 3 after peritumoral injection, cleaved-caspase 3 staining): local cell death is induced | effect on surrounding normal tissue ([5]; local delivery from the gels, FIG. 22): much less affected

CCL20: Chemokine (C-C motif) ligand 20, DC chemokine
immune cell accumulation at gel placed under the skin [4]: bright DC staining at gel periphery

Reference: patent US11786457B2, “Peritumoral and intratumoral materials for cancer therapy” (President and Fellows of Harvard College, priority 2015, dated 2023)
